Entries after “also recorded” stand apart in the source; their conditions may differ.
Biological target: SARS-CoV-2 M^pro dimer-monomer equilibrium (Severe acute respiratory syndrome coronavirus 2, UniProt P0DTD1)
Experiment: SAXS analysis of M^pro dimer-monomer equilibrium in presence of inhibitors
Conditions: for effect on M^pro dimer-monomer equilibrium (in words): SAXS; for αCp (rate of change of dissociation heat capacity with inhibitor concentration) / αS (rate of change of dissociation entropy with inhibitor concentration) / αG (rate of change of dissociation Gibbs free energy with inhibitor concentration): global SAXS fit, M^pro 30 μM; for αG (rate of change of dissociation Gibbs free energy with inhibitor concentration): inhibitor 30 and 60 μM, 30-45 °C

| SMILES | effect on M^pro dimer-monomer equilibrium (in words) | αCp (rate of change of dissociation heat capacity with inhibitor concentration) | αS (rate of change of dissociation entropy with inhibitor concentration) | αG (rate of change of dissociation Gibbs free energy with inhibitor concentration) |
| --- | --- | --- | --- | --- |
| Fc1c(F)c(N2CCOCCOCCOCCOCCOCC2)c(F)c(F)c1-c1nc(-c2ccccc2)no1 [Inhibitor 4, 16-(2,3,5,6-tetrafluoro-4-(3-phenyl-1,2,4-oxadiazol-5-yl)phenyl)-1,4,7,10,13-pentaoxa-16-azacyclooctadecane] | do not affect in a significant way the dimer-monomer equilibrium; also recorded: very weak stabilizing effect of the dimer | -2±2 10^-2 μM^-1 | -1±5 10^-2 μM^-1 | 0.0±0.1 10^-2 μM^-1 |
| CCNC(=O)c1noc(-c2c(F)c(F)c(NCCN(CCNc3c(F)c(F)c(-c4nc(C(=O)NCC)no4)c(F)c3F)CCNc3c(F)c(F)c(-c4nc(C(=O)NCC)no4)c(F)c3F)c(F)c2F)n1 [Inhibitor 7, 5,5’,5”-(((nitrilotris(ethane-2,1-diyl))tris(azanediyl))tris(2,3,5,6-tetrafluorobenzene-4,1-diyl))tris(N-ethyl-1,2,4-oxadiazole-3-carboxamide)] | mostly able to increase the dissociation equilibrium constant | -3±3 10^-2 μM^-1 | -5±2 10^-2 μM^-1 | -0.19±0.07 10^-2 μM^-1 |
| OCCN(CCOc1c(F)c(F)c(-c2nc(-c3ccncc3)no2)c(F)c1F)CCOc1c(F)c(F)c(-c2nc(-c3ccncc3)no2)c(F)c1F [Inhibitor 3] | do not affect in a significant way the dimer-monomer equilibrium; also recorded: does not alter the native dissociation equilibrium | 0±4 10^-2 μM^-1 | -8±4 10^-2 μM^-1 | 0.00±0.08 10^-2 μM^-1 |

— paper PMC8085067, “The dimer-monomer equilibrium of SARS-CoV-2 main protease is affected by small molecule inhibitors” (Scientific Reports, 2021)
